Experimental data from ChEMBL document CHEMBL5614415, “Recent advances and challenges of revolutionizing drug-resistant tuberculosis treatment” (Eur J Med Chem, 2024).

Tested on: Mycobacterium tuberculosis variant bovis
Experiment: Antimycobacterial activity against Mycobacterium bovis BCG ATCC 35734 assessed as bacterial growth inhibition incubated for 15 days by resazurin based reduction assay
Format: functional
Conditions: BCG ATCC 35734, 360 h, time 15 day

COc1cc([C@](O)(CCN(C)C)[C@@H](c2cc3cc(Br)ccc3nc2OC)c2cccc(OC)c2F)cc(OC)n1 [TBAJ-587]
MIC50: < 6 ng/mL
